The values that follow come from paper PMC5404560, “Towards Selective Mycobacterial ClpP1P2 Inhibitors with Reduced Activity against the Human Proteasome” (Antimicrobial Agents and Chemotherapy, 2017).

In brackets after ≈: the same amount, converted by molar mass. Counter-ions that a name gives are not always drawn.

One assay deals with M. smegmatis ΔprcAB. Type of assay: cell-based. The note with it: 24 h exposure, OD600; concentration inhibiting 50% of growth.
The next assay deals with HepG2 proteasome (Homo sapiens, UniProt P20618+P28074). The experiment in a line: Cell-based proteasome CT-like peptidase inhibition assay (Proteasome-Glo).
The target of another assay is ClpP1P2 (Mycolicibacterium smegmatis, UniProt A0R197+A0R198). Nature of the assay: ClpP1P2 inhibition whole-cell RFP-SsrA reporter assay. The note with it: M. smegmatis ΔprcAB IC50 (μM) for ClpP1P2, whole-cell RFP-SsrA reporter, 3 h incubation.
Another assay deals with M. tuberculosis H37Rv. Nature of the assay: microbe, parasite or virus in culture. Type of assay: cell-based. The note with it: for MIC50 / MIC90: Mycobacterium tuberculosis, H37RV, 120 h; for MIC50: read-out: MIC50 (μM) against M. tuberculosis H37Rv; for MIC90: read-out: MIC90 (μM) against M. tuberculosis H37Rv.
The target in another assay is T1, Neprilysin (Homo sapiens, UniProt P08473).
T1 construct: Reaction Biology Corporation (contract testing)
Nature of the assay: Protease panel: Neprilysin. The format is biochemical. The note with it: supplement panel table, test and control compound. The method, then: Protease panel testing was carried out by Reaction Biology Corporation.

The target of a further assay is T2, Caspase 7 (Homo sapiens, UniProt P55210).
T2 construct: Reaction Biology Corporation (contract testing)
Nature of the assay: Protease panel: Caspase 7. The format is biochemical. The note with it: supplement panel table, test and control compound.

Another assay concerns the target T3, Calpain 1 (Homo sapiens, UniProt P07384).
T3 construct: Reaction Biology Corporation (contract testing)
The experiment in a line: Protease panel: Calpain 1. The note with it: supplement panel table, test and control compound. Type of assay: biochemical.

The next assay addresses T4, Cathepsin B (Homo sapiens, UniProt P07858).
T4 construct: Reaction Biology Corporation (contract testing)
The experiment in a line: Protease panel: Cathepsin B. The format is biochemical. The note with it: supplement panel table, test and control compound.

For a further assay, the target named is Cathepsin L (Homo sapiens, UniProt P07711). The experiment in a line: Protease panel: Cathepsin L. The format is biochemical. The note with it: supplement panel table, test and control compound.
Another assay concerns the target T5, Cathepsin C (Homo sapiens, UniProt P53634).
T5 construct: Reaction Biology Corporation (contract testing)
The experiment in a line: Protease panel: Cathepsin C. The format is biochemical. The note with it: supplement panel table, test and control compound.

The next assay addresses T6, Papain (Carica papaya, UniProt P00784).
T6 construct: Reaction Biology Corporation (contract testing)
The experiment in a line: Protease panel: Papain. Type of assay: biochemical. The note with it: supplement panel table, test and control compound.

The target of a further assay is Cathepsin V (Homo sapiens, UniProt O60911). The experiment in a line: Protease panel: Cathepsin V. Type of assay: biochemical. The note with it: supplement panel table, test and control compound.
A further assay deals with Cathepsin S (Homo sapiens, UniProt P25774). Nature of the assay: Protease panel: Cathepsin S. The format is biochemical. The note with it: supplement panel table, test and control compound.
For a further assay, the target named is Cathepsin H (Homo sapiens, UniProt P09668). Nature of the assay: Protease panel: Cathepsin H. The format is biochemical. The note with it: supplement panel table, test and control compound.
The target in another assay is T7, Thrombin a (Homo sapiens, UniProt P00734).
T7 construct: Reaction Biology Corporation (contract testing)
The experiment in a line: Protease panel: Thrombin a. The format is biochemical. The note with it: supplement panel table, test and control compound.

The next assay has as its target Kallikrein 12 (Homo sapiens, UniProt Q9UKR0). Nature of the assay: Protease panel: Kallikrein 12. Type of assay: biochemical. The note with it: supplement panel table, test and control compound.
The next assay has as its target T8, Tryptase g1 (Homo sapiens, UniProt Q9NRR2).
T8 construct: Reaction Biology Corporation (contract testing)
The experiment in a line: Protease panel: Tryptase g1. The format is biochemical. The note with it: supplement panel table, test and control compound.

The next assay addresses Matriptase 2 (Homo sapiens, UniProt Q8IU80). Nature of the assay: Protease panel: Matriptase 2. The note with it: supplement panel table, test and control compound. The format is biochemical.
The next assay has as its target T9, Plasma kallikrein (Homo sapiens, UniProt P03952).
T9 construct: Reaction Biology Corporation (contract testing)
Nature of the assay: Protease panel: Plasma kallikrein. Type of assay: biochemical. The note with it: supplement panel table, test and control compound.

A further assay addresses T10, Urokinase (Homo sapiens, UniProt P00749).
T10 construct: Reaction Biology Corporation (contract testing)
Nature of the assay: Protease panel: Urokinase. Type of assay: biochemical. The note with it: supplement panel table, test and control compound.

The next assay has as its system Trypsin. The experiment in a line: Protease panel: Trypsin. Type of assay: biochemical. The note with it: supplement panel table, test and control compound.
For a further assay, the target named is T11, Plasmin (Homo sapiens, UniProt P00747).
T11 construct: Reaction Biology Corporation (contract testing)
Nature of the assay: Protease panel: Plasmin. The format is biochemical. The note with it: supplement panel table, test and control compound.

The target in a further assay is Kallikrein 7 (Homo sapiens, UniProt P49862). The experiment in a line: Protease panel: Kallikrein 7. The note with it: supplement panel table, test and control compound. The format is biochemical.
In a further assay the target is Elastase. The experiment in a line: Protease panel: Elastase. The format is biochemical. The note with it: supplement panel table, test and control compound.
The next assay addresses T12, Tryptase b2 (Homo sapiens, UniProt P20231).
T12 construct: Reaction Biology Corporation (contract testing)
Nature of the assay: Protease panel: Tryptase b2. The format is biochemical. The note with it: supplement panel table, test and control compound.

The target of the next assay is Kallikrein 5 (Homo sapiens, UniProt Q9Y337). The experiment in a line: Protease panel: Kallikrein 5. The format is biochemical. The note with it: supplement panel table, test and control compound.
For the next assay, the target named is T13, FXa (Homo sapiens, UniProt P00742).
T13 construct: FXa serine peptidase
The experiment in a line: Protease panel: FXa. The format is biochemical. The note with it: supplement panel table, test and control compound.

For another assay, the target named is Kallikrein 13 (Homo sapiens, UniProt Q9UKR3). The experiment in a line: Protease panel: Kallikrein 13. Type of assay: biochemical. The note with it: supplement panel table, test and control compound.
The next assay deals with Kallikrein 14 (Homo sapiens, UniProt Q9P0G3). The experiment in a line: Protease panel: Kallikrein 14. Type of assay: biochemical. The note with it: supplement panel table, test and control compound.
Sequence of Kallikrein 14 (Q9P0G3 41-267, species assumed): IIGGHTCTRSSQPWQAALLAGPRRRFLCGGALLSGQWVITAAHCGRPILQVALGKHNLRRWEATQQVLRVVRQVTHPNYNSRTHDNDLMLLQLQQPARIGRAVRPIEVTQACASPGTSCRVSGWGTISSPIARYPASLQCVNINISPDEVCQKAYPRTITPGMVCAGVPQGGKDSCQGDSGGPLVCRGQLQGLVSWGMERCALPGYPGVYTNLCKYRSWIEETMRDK

Sequence of ClpP1P2 (A0R198 4-203): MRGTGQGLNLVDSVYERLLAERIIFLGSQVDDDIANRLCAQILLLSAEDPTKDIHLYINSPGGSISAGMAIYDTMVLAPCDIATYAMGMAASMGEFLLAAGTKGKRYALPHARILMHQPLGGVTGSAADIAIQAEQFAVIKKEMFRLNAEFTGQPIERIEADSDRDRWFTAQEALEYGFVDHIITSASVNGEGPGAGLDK
Sequence of ClpP1P2 (A0R197 17-218): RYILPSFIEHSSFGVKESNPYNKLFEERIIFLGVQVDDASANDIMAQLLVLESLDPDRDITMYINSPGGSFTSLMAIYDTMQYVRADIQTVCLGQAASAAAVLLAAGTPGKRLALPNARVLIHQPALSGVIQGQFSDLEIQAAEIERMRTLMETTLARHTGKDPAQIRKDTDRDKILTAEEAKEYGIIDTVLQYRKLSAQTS
T11 sequence (P00747 581-810 limits assumed, species assumed): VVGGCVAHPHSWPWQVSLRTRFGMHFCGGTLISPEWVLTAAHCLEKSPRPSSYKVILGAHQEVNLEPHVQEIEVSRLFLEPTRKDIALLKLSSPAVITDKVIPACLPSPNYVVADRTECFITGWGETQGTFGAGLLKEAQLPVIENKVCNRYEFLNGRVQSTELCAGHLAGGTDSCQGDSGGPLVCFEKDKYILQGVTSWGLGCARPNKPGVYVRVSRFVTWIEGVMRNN
T11 sequence (P00747 97-580 partner limits assumed, species assumed): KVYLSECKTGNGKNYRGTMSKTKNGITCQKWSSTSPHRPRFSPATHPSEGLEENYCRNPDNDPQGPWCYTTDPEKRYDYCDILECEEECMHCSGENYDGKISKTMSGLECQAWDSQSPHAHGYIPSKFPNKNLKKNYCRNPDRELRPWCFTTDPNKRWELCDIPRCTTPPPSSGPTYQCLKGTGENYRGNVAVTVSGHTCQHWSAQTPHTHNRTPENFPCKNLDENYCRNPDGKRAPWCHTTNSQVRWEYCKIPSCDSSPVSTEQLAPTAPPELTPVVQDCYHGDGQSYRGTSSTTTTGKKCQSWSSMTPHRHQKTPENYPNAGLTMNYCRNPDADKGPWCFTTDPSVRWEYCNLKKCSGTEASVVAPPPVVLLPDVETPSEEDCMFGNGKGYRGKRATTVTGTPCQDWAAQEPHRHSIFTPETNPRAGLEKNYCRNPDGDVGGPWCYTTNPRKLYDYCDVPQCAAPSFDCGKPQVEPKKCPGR
T6 sequence (P00784 134-345): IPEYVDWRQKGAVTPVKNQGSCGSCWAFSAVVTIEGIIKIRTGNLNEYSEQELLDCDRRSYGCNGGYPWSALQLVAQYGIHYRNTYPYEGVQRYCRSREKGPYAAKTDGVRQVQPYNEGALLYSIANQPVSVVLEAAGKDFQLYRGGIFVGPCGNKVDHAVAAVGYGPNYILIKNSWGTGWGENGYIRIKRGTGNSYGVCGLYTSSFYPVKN
Sequence of Kallikrein 13 (Q9UKR3 17-277, species assumed): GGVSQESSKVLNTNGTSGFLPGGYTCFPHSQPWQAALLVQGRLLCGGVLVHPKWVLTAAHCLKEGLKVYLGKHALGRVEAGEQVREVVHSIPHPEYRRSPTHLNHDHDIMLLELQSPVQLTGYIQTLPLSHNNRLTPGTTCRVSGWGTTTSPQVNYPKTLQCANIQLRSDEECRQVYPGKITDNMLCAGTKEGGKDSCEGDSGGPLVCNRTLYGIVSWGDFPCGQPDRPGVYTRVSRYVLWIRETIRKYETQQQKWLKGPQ
Sequence of Kallikrein 5 (Q9Y337 23-293, species assumed): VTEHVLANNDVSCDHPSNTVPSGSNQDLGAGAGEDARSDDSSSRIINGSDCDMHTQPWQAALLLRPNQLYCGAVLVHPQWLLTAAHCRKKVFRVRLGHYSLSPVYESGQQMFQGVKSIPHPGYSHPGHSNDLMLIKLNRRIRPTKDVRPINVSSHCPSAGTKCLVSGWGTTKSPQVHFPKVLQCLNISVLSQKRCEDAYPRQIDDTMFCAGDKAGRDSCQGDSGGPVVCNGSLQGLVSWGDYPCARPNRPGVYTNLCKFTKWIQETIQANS
T5 sequence (P53634 25-463, species assumed): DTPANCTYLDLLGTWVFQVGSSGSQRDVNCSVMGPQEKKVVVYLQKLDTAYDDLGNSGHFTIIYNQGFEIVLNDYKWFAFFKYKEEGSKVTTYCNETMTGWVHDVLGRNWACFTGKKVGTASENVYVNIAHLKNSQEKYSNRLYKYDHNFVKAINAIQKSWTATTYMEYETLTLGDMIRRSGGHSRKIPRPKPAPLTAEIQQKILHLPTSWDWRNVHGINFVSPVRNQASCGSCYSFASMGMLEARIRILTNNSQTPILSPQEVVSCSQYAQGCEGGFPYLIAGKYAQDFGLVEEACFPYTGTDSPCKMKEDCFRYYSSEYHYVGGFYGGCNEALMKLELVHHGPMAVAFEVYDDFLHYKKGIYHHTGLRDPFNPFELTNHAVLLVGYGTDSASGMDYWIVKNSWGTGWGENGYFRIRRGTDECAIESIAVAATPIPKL
Sequence of Cathepsin L (P07711 114-333, species assumed): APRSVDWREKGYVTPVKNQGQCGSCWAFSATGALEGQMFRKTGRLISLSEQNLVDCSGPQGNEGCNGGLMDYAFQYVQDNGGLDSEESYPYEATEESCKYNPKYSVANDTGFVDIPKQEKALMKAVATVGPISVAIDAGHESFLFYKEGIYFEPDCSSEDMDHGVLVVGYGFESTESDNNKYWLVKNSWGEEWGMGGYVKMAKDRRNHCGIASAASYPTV
T3 sequence (P07384 whole entry): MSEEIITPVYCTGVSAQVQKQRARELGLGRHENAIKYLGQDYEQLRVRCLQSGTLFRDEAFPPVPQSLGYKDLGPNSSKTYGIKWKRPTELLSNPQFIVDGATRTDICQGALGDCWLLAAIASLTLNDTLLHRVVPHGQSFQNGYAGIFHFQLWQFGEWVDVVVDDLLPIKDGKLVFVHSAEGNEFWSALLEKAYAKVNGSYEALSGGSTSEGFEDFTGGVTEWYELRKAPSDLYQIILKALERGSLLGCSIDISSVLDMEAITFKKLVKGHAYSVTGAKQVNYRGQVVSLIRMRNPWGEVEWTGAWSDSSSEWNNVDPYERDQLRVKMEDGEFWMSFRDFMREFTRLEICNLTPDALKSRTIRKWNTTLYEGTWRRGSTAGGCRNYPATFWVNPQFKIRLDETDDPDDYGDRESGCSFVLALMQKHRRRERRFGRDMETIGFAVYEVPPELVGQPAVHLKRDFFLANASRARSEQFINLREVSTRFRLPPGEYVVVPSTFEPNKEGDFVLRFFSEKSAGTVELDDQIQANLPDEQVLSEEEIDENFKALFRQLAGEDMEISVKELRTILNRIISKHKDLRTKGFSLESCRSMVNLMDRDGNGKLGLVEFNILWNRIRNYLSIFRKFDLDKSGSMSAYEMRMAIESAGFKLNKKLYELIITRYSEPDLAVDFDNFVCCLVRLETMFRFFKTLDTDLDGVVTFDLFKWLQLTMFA
T3 sequence (P04632 whole entry partner): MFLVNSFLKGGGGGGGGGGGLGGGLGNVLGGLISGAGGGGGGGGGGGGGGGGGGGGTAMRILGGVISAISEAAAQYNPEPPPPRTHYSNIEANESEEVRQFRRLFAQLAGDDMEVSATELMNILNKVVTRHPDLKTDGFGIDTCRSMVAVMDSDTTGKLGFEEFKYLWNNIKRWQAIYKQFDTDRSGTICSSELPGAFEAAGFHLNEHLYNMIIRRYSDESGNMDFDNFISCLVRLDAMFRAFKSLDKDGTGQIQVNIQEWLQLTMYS
Sequence of Cathepsin V (O60911 114-334, species assumed): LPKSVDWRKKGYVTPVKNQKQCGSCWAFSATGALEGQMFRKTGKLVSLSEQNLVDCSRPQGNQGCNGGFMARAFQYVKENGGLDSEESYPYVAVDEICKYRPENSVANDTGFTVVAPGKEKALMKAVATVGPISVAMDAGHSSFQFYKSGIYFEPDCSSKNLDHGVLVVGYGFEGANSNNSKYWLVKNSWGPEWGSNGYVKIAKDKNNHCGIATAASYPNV
Sequence of Matriptase 2 (Q8IU80 whole entry, species assumed): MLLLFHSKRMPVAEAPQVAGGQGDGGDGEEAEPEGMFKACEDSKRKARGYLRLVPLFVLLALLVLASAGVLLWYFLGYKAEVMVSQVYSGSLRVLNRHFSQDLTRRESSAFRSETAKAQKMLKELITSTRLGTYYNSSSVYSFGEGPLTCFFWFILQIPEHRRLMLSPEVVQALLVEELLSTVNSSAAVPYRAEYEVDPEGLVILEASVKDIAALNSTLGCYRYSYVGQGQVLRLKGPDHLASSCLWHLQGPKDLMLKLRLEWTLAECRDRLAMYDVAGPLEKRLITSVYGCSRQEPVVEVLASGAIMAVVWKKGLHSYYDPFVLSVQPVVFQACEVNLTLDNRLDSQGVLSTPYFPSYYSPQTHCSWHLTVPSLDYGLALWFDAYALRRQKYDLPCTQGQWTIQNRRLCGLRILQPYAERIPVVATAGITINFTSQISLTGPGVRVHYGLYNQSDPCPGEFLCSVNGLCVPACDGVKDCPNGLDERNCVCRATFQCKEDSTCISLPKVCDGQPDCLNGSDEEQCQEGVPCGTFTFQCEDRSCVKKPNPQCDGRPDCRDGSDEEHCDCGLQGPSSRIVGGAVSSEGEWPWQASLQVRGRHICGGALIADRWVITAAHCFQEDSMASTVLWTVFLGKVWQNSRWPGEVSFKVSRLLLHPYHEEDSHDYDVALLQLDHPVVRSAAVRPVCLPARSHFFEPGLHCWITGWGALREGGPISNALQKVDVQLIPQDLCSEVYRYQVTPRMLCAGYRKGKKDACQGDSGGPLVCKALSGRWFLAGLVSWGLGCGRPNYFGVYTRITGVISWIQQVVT
Procedure for HepG2 proteasome: A cell-based CT-like peptidase assay was performed using the Proteasome-Glo cell-based assay reagent (Promega) according to the manufacturer's guidelines. Briefly, HepG2 cells (10^4 cells/well) were treated with the compounds indicated in the figures for 2 h, followed by incubation with the luminescent substrate for 10 min. Luminescence was detected with a Tecan M200 Pro plate reader.

By IC50 is commonly meant the concentration at which inhibition is half-maximal. A high value points to weaker potency in that assay. With `O=C(N[C@@H](Cc1ccccc1)C(=O)N[C@@H](CCc1ccccc1)B(O)O)c1ccccc1` [Compound 51, ((R)-1-((S)-2-benzamido-3-phenylpropanamido)-3-phenylpropyl)boronic acid], the “M. smegmatis ΔprcAB MIC50” value in the assay with M. smegmatis ΔprcAB was 2.7 ± 0.5 µM. This molecule also came in with an IC50 against HepG2 proteasome of 167 ± 59 nM. At ClpP1P2, this molecule came in with an IC50 of 1.5 ± 0.5 µM. In addition, in the assay on M. tuberculosis H37Rv (5 days), the MIC50 came to 1 ± 0.2 µM (≈ 0.43 µg/mL) and the MIC90 was 6 ± 0.2 µM (≈ 2.58 µg/mL).

With `CC(C)C[C@H](NP(=O)(O)O[C@@H]1O[C@@H](C)[C@H](O)[C@@H](O)[C@H]1O)C(=O)N[C@@H](Cc1c[nH]c2ccccc12)C(=O)O` [Phosphoramidon], on Neprilysin, half-maximal inhibition (IC50) required 0.0422 µM.

`CC(=O)N[C@@H](CC(=O)O)C(=O)N[C@@H](CCC(=O)O)C(=O)N[C@H](C(=O)N[C@H](C=O)CC(=O)O)C(C)C` [DEVD-CHO] registered an IC50 against Caspase 7 of 0.0011 µM.

Consider `CC(C)C[C@H](NC(=O)[C@H]1O[C@@H]1C(=O)O)C(=O)NCCCCN=C(N)N` [Compound E64], for which the IC50 on Calpain 1 was 0.098 µM; against Cathepsin B it was 0.00987 µM; against Cathepsin L, 0.00999 µM; against Cathepsin C it was 0.607 µM; at Papain, 0.000936 µM; on Cathepsin V, 0.0118 µM. The concentration for half-maximal inhibition (IC50) on Cathepsin S came out at 0.00939 µM; at Cathepsin H, 0.198 µM.

On to `O=C(N[C@@H](Cc1ccc(O)cc1)C(=O)N[C@@H](CCc1ccccc1)B(O)O)c1cnccn1` [Compound 57], for which the “M. smegmatis ΔprcAB MIC50” value with M. smegmatis ΔprcAB is 8 ± 2.8 µM. At HepG2 proteasome, this molecule displayed an IC50 of 533 ± 103 nM. On ClpP1P2, the IC50 was found to be 7.5 ± 4.5 µM. In addition, the “improvement of M. tuberculosis MIC50 over compound 1” value in the assay with M. tuberculosis H37Rv was found to be 5 fold. For the same molecule, in the assay on M. tuberculosis H37Rv (5 days), the “MIC50 (μM) against M. tuberculosis H37Rv” value was found to be 0.8 ± 0 µM (≈ 0.359 µg/mL), the MIC50 amounted to 0.8 µM (≈ 0.359 µg/mL) and the MIC90 is 3 µM (≈ 1.34 µg/mL).

In the case of `O=C(N[C@@H](Cc1ccccc1)C(=O)N[C@@H](CCc1ccccc1)B(O)O)c1cnccn1` [Compound 32, ((R)-3-phenyl-1-((S)-3-phenyl-2-(pyrazine-2-carboxamido)propanamido)propyl)boronic acid], the “M. smegmatis ΔprcAB MIC50” value in the assay with M. smegmatis ΔprcAB was determined as 7 ± 1 µM. Further, the IC50 came out at 70 ± 10 nM against HepG2 proteasome and 7.3 ± 1.9 µM at ClpP1P2. The MIC50 with M. tuberculosis H37Rv (5 days) was found to be 6 µM (≈ 2.59 µg/mL). For the same molecule, the MIC90 with M. tuberculosis H37Rv (5 days) came out at 25 µM (≈ 10.8 µg/mL).

In the case of `CCOC(=O)c1ccc(OC(=O)CCCCCN=C(N)N)cc1` [Gabexate mesylate (GM), Gabexate mesylate], the IC50 was 3.73 µM at Thrombin a; 0.351 µM against Kallikrein 12; 0.0506 µM on Tryptase g1; 7.56 µM against Matriptase 2; 0.475 µM on Plasma kallikrein; 0.1 µM on Urokinase. For the same molecule, the half-inhibitory concentration (IC50) in the assay on Trypsin came to 0.0669 µM; at Plasmin it was 0.936 µM; against Kallikrein 7, 29.3 µM; against Elastase, 1.81 µM; against Tryptase b2, 0.0873 µM; against Kallikrein 5, 8.06 µM. The IC50 against FXa was 5.3 µM; against Kallikrein 13, 17.6 µM; against Kallikrein 14, 0.969 µM.
